The results in this text go back to patent US11130960B2, “Methods for conferring or enhancing herbicide resistance on plants and/or alga with protoporphyrinogen oxidase variants” (FARM HANNONG CO., LTD., priority 2014, dated 2021).

The target of one experiment is T1, wild-type AtPPO1 (Arabidopsis thaliana, UniProt P55826).
T1 construct: expressed in transfected cells; host or cells: E. coli BT3(ΔPPO), pACBB vector
T1 sequence (P55826 35-537): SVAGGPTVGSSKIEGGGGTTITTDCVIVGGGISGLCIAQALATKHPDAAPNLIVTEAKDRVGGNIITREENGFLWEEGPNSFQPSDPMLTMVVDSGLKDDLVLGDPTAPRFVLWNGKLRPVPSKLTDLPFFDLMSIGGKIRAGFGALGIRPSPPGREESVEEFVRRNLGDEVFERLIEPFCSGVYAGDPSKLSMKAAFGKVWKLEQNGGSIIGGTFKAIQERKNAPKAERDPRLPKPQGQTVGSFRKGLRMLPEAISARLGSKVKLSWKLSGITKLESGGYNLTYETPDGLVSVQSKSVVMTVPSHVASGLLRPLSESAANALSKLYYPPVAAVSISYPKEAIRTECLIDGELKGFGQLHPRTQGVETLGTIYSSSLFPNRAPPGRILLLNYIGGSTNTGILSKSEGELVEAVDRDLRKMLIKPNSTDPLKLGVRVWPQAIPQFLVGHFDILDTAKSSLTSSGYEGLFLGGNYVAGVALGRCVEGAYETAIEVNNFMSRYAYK
The experiment in a line: Growth of transformed BT3(ΔPPO) E. coli in LB liquid medium (OD600). Particulars: 37° C., OD600 over culture time. The format is cell-based. The method, then: (§1) In Example 3, herbicide resistance of respective BT3(ΔPPO) strains transformed with the wild-type AtPPO1, mutant AtPPO1, CyPPO2, CyPPO4 or CyPPO8 gene was investigated on agar media containing different herbicides, and in this Example, herbicide resistance of the strains was investigated in LB liquid media containing different herbicides.
(§2) HV-50 autoclave from Hirayama, HS2100A electronic scale from Hansung Instrument, CB-30V clean bench from Jeio Tech, JSI-200CL incubator from JSR, MQ-200 photometer from Apogee, and 1210 type UV-visible spectrophotometer from Thermo Fisher Scientific were used. The autoclave was used under conditions of 121° C. and 15 minutes, and the incubator was used at 37° C. with lighting of 160˜200 μmol m^−2s^−1 for a culture time of 13.5 hours. The UV-visible spectrophotometer was used at 600 nm.
(§3) Tiafenacil (M.W. 511.87 g/mol), Saflufenacil (M.W. 500.85 g/mol), and Fomesafen (M.W. 438.76 g/mol) used in the experiment were purchased from Dongbu Farm Hannong Co., Ltd, Sigma, and Sigma, respectively. These drugs were prepared at 200 mM concentration in 100% acetone, and stored at −20° C., respectively. Luria-Bertani(LB) medium (10 g/L of Bacto-Tryptone, 5 g/L of Yeast extract, 10 g/L of sodium chloride) and an antibiotic Chloramphenicol (Duchefa) were used.
(§4) For seed culture of E. coli transformed with respective genes, single colonies thereof were cultured in 3 ml of LB broth containing chloramphenicol for 12 hours, and they were diluted with LB broth to absorbance (OD600) of 1.5. Next, chloramphenicol and 500 μl of the seed culture of the transformed E. coli were added to 250 ml of LB liquid medium, and 50 ml of the culture was added to each 250 ml-flask. Each flask was treated with varying concentrations (0, 10 μM, 50 μM, 100 μM) of herbicide stocks (Tiafenacil, Saflufenacil, Fomesafen), and then incubated at 37° C. and 200 rpm. Absorbance (OD600) was measured using a spectrophotometer every 1.5 hours. The experiment was repeated three times, and mean values thereof were given in a graph. Error bars represent standard error of three repeats.

The target of a further experiment is T2, Mutant AtPPO1 (Arabidopsis thaliana, UniProt P55826, S305L/Y426M).
T2 construct: expressed in transfected cells; host or cells: E. coli BT3(ΔPPO), pACBB vector
T2 sequence (P55826 35-537 S305L/Y426M): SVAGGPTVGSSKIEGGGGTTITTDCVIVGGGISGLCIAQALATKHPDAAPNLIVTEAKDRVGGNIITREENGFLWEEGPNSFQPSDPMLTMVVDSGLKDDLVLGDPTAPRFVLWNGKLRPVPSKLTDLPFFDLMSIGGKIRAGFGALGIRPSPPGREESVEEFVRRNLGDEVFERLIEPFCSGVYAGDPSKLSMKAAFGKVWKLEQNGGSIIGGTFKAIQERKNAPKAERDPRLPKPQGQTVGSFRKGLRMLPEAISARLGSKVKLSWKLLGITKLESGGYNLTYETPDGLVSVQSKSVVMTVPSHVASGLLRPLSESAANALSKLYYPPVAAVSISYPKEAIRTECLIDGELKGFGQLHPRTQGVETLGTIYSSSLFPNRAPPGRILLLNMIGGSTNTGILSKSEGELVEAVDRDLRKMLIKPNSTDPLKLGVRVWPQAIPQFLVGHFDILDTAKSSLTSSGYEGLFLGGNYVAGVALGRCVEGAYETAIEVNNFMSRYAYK
The description is as above. In kind it is cell-based. Particulars: 37° C., OD600 over culture time. On the procedure:
as §1, §2, §3, §4

For experiment [1], the system named is mutant AtPPO1 transformant. The experiment in a line: Herbicide spray test on Arabidopsis thaliana T2 plants. The format is in vivo. Conditions: 2-3 ml of 0.5 μM Tiafenacil, 1 μM Saflufenacil, or 3 μM Fomesafen per plant.
For another experiment, the system named is wild-type Col-0 plants. Briefly: Herbicide spray test on Arabidopsis thaliana plants. Conditions: for outcome of plants at 7 days after spraying: 2-3 ml of 0.5 μM Tiafenacil, 1 μM Saflufenacil, or 3 μM Fomesafen per plant grown about 4 weeks. The format is in vivo. The method, then: To examine resistance of the transplanted T1 plants against PPO-based herbicides, the plants were grown for about 3-4 weeks, and then treated with herbicides prior to flower stalk elongation. […] Therefore, 1 μM tiafenacil was evenly applied at an amount proper for the number of plant individuals. After 7 days, resistance of the transformants against PPO-based herbicides was examined.
To examine whether herbicide resistance traits are maintained in the next generations of plants, respective T2 generation plants of Arabidopsis thaliana which were transformed with CyPPO2, CyPPO4 and CyPPO8 genes were subjected to an herbicide resistance test. 2-3 ml of 0.5 μM Tiafenacil, 1 μM Saflufenacil, or 3 μM Fomesafen was sprayed onto each Arabidopsis thaliana plant grown for about 4 weeks.

For another experiment, the system named is CyPPO4. The experiment in a line: Growth of transformed BT3(ΔPPO) E. coli in LB liquid medium (OD600). In kind it is cell-based, Lyngbya sp. PCC 8106. Conditions: 37° C., OD600 over culture time. On the procedure:
as §1, §2, §3, §4

The next experiment has as its system CyPPO2. The description is as above. In kind it is cell-based, Oscillatoria nigro-viridis PCC 7112. Conditions: 37° C., OD600 over culture time. On the procedure: as §1, §2, §3, §4

Molecules are shown by their SMILES. Bounds are passed on as bounds.

On to `COC(=O)CCNC(=O)C(C)Sc1cc(-n2c(=O)cc(C(F)(F)F)n(C)c2=O)c(F)cc1Cl` (centres unmarked) [Tiafenacil], for which the “concentration at which the strain hardly grew” value at wild-type AtPPO1 is not below 10 µM. The “concentration at which growth inhibition was observed” value on Mutant AtPPO1 was not below 50 µM. Also, on Mutant AtPPO1, the “concentration at which the strain grew” value turned out to be 10 µM. For the same compound, the “outcome of plants at 7 days after spraying” value (shortened to “outcome of plants at 7 days”) in experiment [1] is on record as “continued to grow without damage”; in the experiment on wild-type Col-0 plants it was “killed”. For the same compound, the “outcome of plants after herbicide treatment” value in the experiment with wild-type Col-0 plants (2-3 ml of 1 μM tiafenacil (+0.05% Silwet L-77) per plant) was “killed”. Also, the “concentration by which the strain normally grew” value in the experiment with CyPPO4 and in the experiment on CyPPO2 was not above 100 µM throughout.
`CS(=O)(=O)NC(=O)c1cc(Oc2ccc(C(F)(F)F)cc2Cl)ccc1[N+](=O)[O-]` [Fomesafen]: the “concentration at which growth inhibition began” value at wild-type AtPPO1 is 50 µM. In addition, the “concentration by which the strain normally grew” value at Mutant AtPPO1, in the experiment on CyPPO4 and in the experiment with CyPPO2 was not above 100 µM in each case. Also, the figures for the “outcome of plants at 7 days” value (in experiment [1]; in the experiment with wild-type Col-0 plants) were “continued to grow without damage” and “killed”, respectively.
Consider `CC(C)N(C)S(=O)(=O)NC(=O)c1cc(-n2c(=O)cc(C(F)(F)F)n(C)c2=O)c(F)cc1Cl` [Saflufenacil], for which the “concentration at which the strain hardly grew” value on wild-type AtPPO1 was not below 10 µM. For the same compound, the “concentration by which the strain normally grew” value at Mutant AtPPO1, with CyPPO4 and in the experiment with CyPPO2 was not above 100 µM throughout. The “outcome of plants at 7 days” value is on record as “continued to grow without damage” in experiment [1] and “killed” in the experiment on wild-type Col-0 plants.
